According to US20240425482A1, “PYRROLIDINE DERIVATIVES AS DDRS INHIBITORS” (CHIESI FARMACEUTICI S.P.A., priority 2021, published 2024):

Tests used:
DDR1 = DDR1 (Homo sapiens (Human), UniProt Q08345); experiment: DDR1 LanthaScreen Europium Kinase Binding assay; settings: binding; 5 nM DDR1, 20 nM Kinase Tracer 178, 1 hour at rt; Ki from IC50 by Cheng-Prusoff; read-out: Ki DDR1
Procedure: (§1) DDR1 and DDR2 binding assays were performed using Life Technologies LanthaScreen™ Europium Kinase Binding assay. The compounds were incubated with 5 nM DDR1 (Carna Biosciences) or 5 nM DDR2 (Life Technologies) for 1 hour at rt in white 384-well OptiPlate (PerkinElmer), containing 20 nM or 10 nM Kinase Tracer 178 respectively and 2 nM Europium labelled anti-GST antibody (Life Technologies) in assay buffer (50 mM HEPES pH 7.5, 10 mM MgCI2, 1 mM EGTA and 0.01% BRIJ35). The ratio of fluorescence emission 665 nm/615 nm after excitation at 340 nm was obtained using the Tecan Spark 20M plate reader. IC50 values were determined in GraphPad Prism 7.0 software, using 4 parameter model: log(inhibitor) vs. response. IC50 values were converted in Ki using the Cheng-Prusoff equation (Ki=IC50/(1+[Tracer]/Kd).
(§2) Compounds C1 and C2 were tested in the same binding assay described above.

DDR2 = DDR2 (Homo sapiens (Human), UniProt Q16832); experiment: DDR2 LanthaScreen Europium Kinase Binding assay; settings: binding; 5 nM DDR2, 10 nM Kinase Tracer 178, 1 hour at rt; Ki from IC50 by Cheng-Prusoff; read-out: Ki DDR2
Chain of DDR2 (Q16832 22-855): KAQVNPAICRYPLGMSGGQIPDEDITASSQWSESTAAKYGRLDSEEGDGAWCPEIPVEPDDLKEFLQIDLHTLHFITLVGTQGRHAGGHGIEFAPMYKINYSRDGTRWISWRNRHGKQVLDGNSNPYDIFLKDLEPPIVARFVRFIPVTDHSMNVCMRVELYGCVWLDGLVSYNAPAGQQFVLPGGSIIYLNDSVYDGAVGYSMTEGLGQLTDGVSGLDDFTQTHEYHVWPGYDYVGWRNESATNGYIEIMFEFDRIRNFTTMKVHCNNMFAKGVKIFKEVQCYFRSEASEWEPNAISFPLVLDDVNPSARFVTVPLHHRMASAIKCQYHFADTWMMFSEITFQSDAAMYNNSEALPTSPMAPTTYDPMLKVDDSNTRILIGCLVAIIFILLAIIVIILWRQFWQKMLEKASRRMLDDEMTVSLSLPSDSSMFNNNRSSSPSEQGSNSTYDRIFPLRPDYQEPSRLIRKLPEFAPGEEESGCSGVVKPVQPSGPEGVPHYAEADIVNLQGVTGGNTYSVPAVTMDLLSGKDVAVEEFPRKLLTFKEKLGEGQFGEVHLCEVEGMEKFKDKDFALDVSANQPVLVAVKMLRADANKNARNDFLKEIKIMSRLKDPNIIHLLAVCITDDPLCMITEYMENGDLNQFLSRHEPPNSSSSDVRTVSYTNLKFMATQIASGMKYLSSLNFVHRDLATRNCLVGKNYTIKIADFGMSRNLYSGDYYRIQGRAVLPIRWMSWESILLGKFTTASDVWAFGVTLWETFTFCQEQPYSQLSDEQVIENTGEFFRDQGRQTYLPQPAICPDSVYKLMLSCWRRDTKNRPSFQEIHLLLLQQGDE
Procedure: as §1, §2

Chain of DDR1 (Q08345 19-913): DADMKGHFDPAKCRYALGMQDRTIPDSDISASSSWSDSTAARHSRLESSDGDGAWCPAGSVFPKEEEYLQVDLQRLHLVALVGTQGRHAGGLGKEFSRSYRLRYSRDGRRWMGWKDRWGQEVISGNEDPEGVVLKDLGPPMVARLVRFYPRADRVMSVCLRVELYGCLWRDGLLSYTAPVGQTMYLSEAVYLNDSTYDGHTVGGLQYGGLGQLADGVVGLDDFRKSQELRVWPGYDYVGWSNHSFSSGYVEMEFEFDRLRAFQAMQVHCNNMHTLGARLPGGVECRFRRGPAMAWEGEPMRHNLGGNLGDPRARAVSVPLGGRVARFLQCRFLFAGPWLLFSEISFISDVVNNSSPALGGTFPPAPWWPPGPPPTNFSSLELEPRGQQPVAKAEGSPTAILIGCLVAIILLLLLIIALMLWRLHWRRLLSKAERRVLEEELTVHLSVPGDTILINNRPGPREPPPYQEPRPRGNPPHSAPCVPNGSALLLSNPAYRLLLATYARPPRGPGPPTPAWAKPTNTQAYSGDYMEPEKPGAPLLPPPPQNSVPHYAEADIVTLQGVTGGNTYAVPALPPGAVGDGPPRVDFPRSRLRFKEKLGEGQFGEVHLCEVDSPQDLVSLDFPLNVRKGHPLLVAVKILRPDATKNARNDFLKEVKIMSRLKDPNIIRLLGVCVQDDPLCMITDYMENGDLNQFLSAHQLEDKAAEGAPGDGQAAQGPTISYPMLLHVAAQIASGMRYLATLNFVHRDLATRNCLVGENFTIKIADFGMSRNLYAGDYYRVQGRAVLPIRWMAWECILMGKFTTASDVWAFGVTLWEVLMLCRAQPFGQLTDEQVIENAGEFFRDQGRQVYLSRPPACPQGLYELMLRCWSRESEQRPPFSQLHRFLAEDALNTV

COCCOc1cncc(N2CC[C@@H](c3cc(C(=O)Nc4cccc(C(F)(F)F)c4)ccc3C)C2)c1 [Example 30, (S)-3-(1-(5-(2-methoxyethoxy)pyridin-3-yl)pyrrolidin-3-yl)-4-methyl-N-(3-(trifluoromethyl)phenyl)benzamide]
Ki (DDR1): < 10 nM | Ki (DDR2): 10 to 25 nM

Cc1ccc(C(=O)Nc2cccc(C(F)(F)F)c2)cc1[C@@H]1CCN(c2cnc(Nc3cnn(C)c3)nc2)C1 [Example 48, (S)-4-methyl-3-(1-(2-((1-methyl-1H-pyrazol-4-yl)amino)pyrimidin-5-yl)pyrrolidin-3-yl)-N-(3-(trifluoromethyl)phenyl)benzamide]
Ki (DDR1): < 10 nM | Ki (DDR2): < 10 nM

Cc1ccc(C(=O)Nc2cccc(C(F)(F)F)c2)cc1C1CCN(c2cncc(C#N)c2)C1 (stereo not drawn) [Example 4, 3-(1-(5-cyanopyridin-3-yl)pyrrolidin-3-yl)-4-methyl-N-(3-(trifluoromethyl)phenyl)benzamide]
Ki (DDR1): 10 to 25 nM | Ki (DDR2): 25 to 60 nM
